Test system: human liver microsomal preparations (cytochrome P450 enzyme preparations)
Assay: Reactive metabolite trapping with compound of formula (I) / (I-IS) in human liver microsomal incubation, neutral loss (129 Da) LC-MS/MS
Assay type: in vitro ADME
Conditions: 10 μM test compound, 1 mg/ml microsomal proteins, 1 mM 1:1 mixture of formula (I) and (I-IS), NADPH generating system, 60 min, 37° C.; neutral loss of 129 Da, doublet mass difference 8 Da
Method: All microsomal incubations described herein were performed at 37° C. in a water bath. The test compound was mixed with human liver microsomal preparations (cytochrome P450 enzyme preparations) in 50 mM potassium phosphate buffer (pH 7.4) supplemented with the non-isotopically labeled compound of formula (I) and the isotopically labeled compound of formula (I-S) that were pre-mixed at an equal molar ratio of 1:1. The resulting mixtures were pre-warmed at 37° C. for 5 min. To the reaction mixtures was then added the co-factor—NADPH generating system—(to initiate the reaction) to yield a final volume of 1000 μl.
The resulting reaction mixtures contained 10 μM test compounds, 1 mg/ml microsomal proteins, 1 mM mixture of non-isotopically labeled compound of formula (I) and isotopically labeled compound of formula (I-IS), 1.3 mM NADP^+, 3.3 mM glucose-6-phosphate, 0.4 U/ml glucose-6-phosphate dehydrogenase, 3.3 mM magnesium chloride.
After a 60 min incubation, the reactions were terminated by the addition of 150 μl of trichloroacetic acid (10%). The resulting mixtures were centrifuged at 10,000 g for 15 min at 4° C. to pellet the precipitated protein, and the supernatants were subjected to solid-phase extractions. Alternatively, the reaction mixtures were subjected to liquid-liquid extractions to recover the metabolites from supernatants.
MS analyses were performed on a Micromass (Manchester, UK) Quattro Micro triple quadrupole mass spectrometer. The ESI ion source was operated in the positive ion mode, and experimental parameters were set as follows: capillary voltage 3.2 kV, source temperature 120° C., desolvation temperature 300° C., sample cone voltage 26 V. Mass spectra collected in the neutral loss scanning mode were obtained by scanning over the range m/z 400-800 in 2.0 s.
For complete profiling of reactive metabolites, samples were first subjected to chromatographic separations with an Agilent 1100 HPLC system with an auto-sampler (Agilent Technologies, Palo Alto, Calif.), and eluents were introduced to the Quattro Micro triple quadrupole mass spectrometer operated in the neutral loss scanning mode. An Agilent Zorbax SB C18 column (2.1×50 mm) was used for the chromatographic separation. […] At 7 min, the column was flushed with 95% acetonitrile for 2 min before re-equilibration at initial conditions. LC-MS/MS analyses were carried out on 10-μl aliquots of cleaned samples. Data were processed using the Masslynx version 4.0 software from Micromass. After a positive peak was detected, MS/MS spectra were subsequently obtained to further confirm the structure of the adduct(s). To acquire CID (Collision Induced Dissociation) spectra, the mass spectrometer was operated in the multiple reaction monitoring (MRM) mode.

Structure (SMILES)	components (reactive metabolite adducts) showing the characteristic isotopic doublet in the neutral loss scan
O=C(O)Cc1ccccc1Nc1c(Cl)cccc1Cl [Diclofenac]	two of the components showed the expected isotope doublet
c1ccoc1 [Furan]	displayed the characteristic isotopic doublet
Cc1coc2c1CCC(C)C2 (stereo not drawn) [Menthofuran]	One component
Cc1ccco1 [2-Methylfuran]	Two isomeric adducts
c1coc(-c2cccs2)c1 [2-(2-Thienyl)-furan]	showed the characteristic isotopic doublet
COc1ccc2[nH]c([S+]([O-])Cc3ncc(C)c(OC)c3C)nc2c1 (stereo not drawn) [Omeprazole]	Only one component
